Test results: patent publication US4173648A, “3β-Hydroxy-18β-olean-9-en-30-oic acids” (I.S.F. SpA, priority 1977, dated 1979)
Structures can show the parent of a compound that is named as a salt.

Legend:
male Swiss mice = assay: anti-ulcer action, cold stress by immersion in water and contention stress (method of C. J. Pfeiffer); format: in vivo, mouse (Swiss); conditions: controls = 100
Method: The test was carried out on male Swiss mice with an average body weight of 23 g. subjected to cold stress by immersion in water and to a contention stress according to the method of C. J. Pfeiffer ("Peptic ulcer", Munksgaard, 1971, page 84). Three dosage levels of 25, 50 and 100 mg/kg and 15 animals for each dosage level were used.
The anti-ulcer action of the compounds was evaluated by calculating the percentage average inhibition, which indicates the inhibition of the ulcer seriousness index in the treated animals, taking 100 as the seriousness index of the controls.

[1] = LD50 in mice per os (acute toxicity); conditions: mouse, in vivo, po
male Wistar rats = assay: anti-diuretic action, urinary sodium and potassium (method of F. M. Sullivan); format: in vivo, rat (Wistar); conditions: for Na+/K+ ratio (urine): gastric probe, urine of five hours after treatment; for % inhibition of the ratio Na+/K+: ratio in controls = 100
Method: The urine produced in the five hours after treatment are collected and the potassium and sodium contents are determined. The tests were carried out at two dosage levels, 30 and 60 mg/kg, using, for each dosage level, 8 pairs of animals.

| SMILES | % average inhibition (of the ulcer seriousness index) (male Swiss mice; 25 mg/kg os) | % average inhibition (of the ulcer seriousness index) (male Swiss mice; 50 mg/kg os) | % average inhibition (of the ulcer seriousness index) (male Swiss mice; 100 mg/kg os) | LD50 [1] | Na+/K+ ratio (urine) (male Wistar rats; 30 mg/kg) | % inhibition of the ratio Na+/K+ (male Wistar rats; 30 mg/kg) | Na+/K+ ratio (urine) (male Wistar rats; 60 mg/kg) | % inhibition of the ratio Na+/K+ (male Wistar rats; 60 mg/kg) |
| --- | --- | --- | --- | --- | --- | --- | --- | --- |
| CC1(C)[C@@H](OC(=O)CCC(=O)O)CC[C@]2(C)C3=CCC4[C@@H]5C[C@@](C)(C(=O)O)CC[C@]5(C)CC[C@@]4(C)[C@]3(C)CC[C@@H]12 (stereo partly drawn) [Disodium salt of 3β-(3-carboxypropionoxy)-18β-olean-9-en-30-oic acid] | 13% | 22.5% | 70.5% | 1000 mg/kg | 3.18 | 0% | 3.59 | -3% |
| CC1(C)[C@@H](OC(=O)CCC(=O)O)CC[C@]2(C)[C@H]3C(=O)C=C4[C@@H]5C[C@@](C)(C(=O)O)CC[C@]5(C)CC[C@@]4(C)[C@]3(C)CC[C@@H]12 [carbenoxolone, disodium salt of glycycrrhetinic acid 3-hemisuccinate] | 29.5% | 29% | 63.5% | 700 mg/kg | 1.81 | 43% | 1.24 | 64% |
